Results from patent US6544991B2, “Compositions and methods for treating bacterial infections” (priority 2000, dated 2003).
Like-named read-outs stand apart in the source and are kept apart here.

Assays:
[1] = system: MRSA strains; assay: MIC by agar dilution or microbroth dilution method (NCCLS); type: cell-based, Staph. aureus; design: MIC50: unit not given beside the values; conditions: for MIC: Staphylococcus aureus
Protocol: (§1) Bacterial isolates were obtained from human infections. The isolates were maintained frozen in a liquid nitrogen freezer and plated on Trypticase Soy Agar (TSA) plates supplemented with 5% sheep blood. The quality control strain Staph. aureus 29213 was originally acquired from the American Type Culture Collection (Rockville, Md.).
(§2) MICs were determined by an agar dilution method or microbroth dilution method recommended by NCCLS. Synergy was assessed by agar dilution checker-board method. Minimal inhibitory concentrations (MICS) for each separate drug were determined. The fractional inhibitory concentration (FIC) values were calculated by the MIC of Drug A (e.g., sulbactam/ampicillin) and Drug B (e.g., linezolid or arbekacin) in combination/MIC of Drug A or B alone. The FIC index was determined according to the following formula: [formula]

[2] = system: Staph. aureus 29213; assay: MIC, quality control strain; type: cell-based; conditions: Staphylococcus aureus, read-out: MIC Values
Protocol: as §1, §2

[3] = system: VRSA strains; assay: MIC by agar dilution or microbroth dilution method (NCCLS), VRSA strains; type: cell-based, Staph. aureus; conditions: VRSA strains (n = 10); for MIC: Staphylococcus aureus
Protocol: as §1, §2
In total, 48 MRSA strains were tested, including ten VRSA strains isolated from five different countries in the world, 33 MRSA strains isolated from ten Japanese university hospitals, and five MRSA type strains from Juntendo University, Department of Bacteriology, Tokyo, Japan.

For `CC(=O)NC[C@H]1CN(c2ccc(N3CCOCC3)c(F)c2)C(=O)O1` [LZD, (S)-N-[[3-[3-fluoro-4-(4-morpholinyl)phenyl]-2-oxo-5-oxazolidinyl]methyl]acetamide], the MIC50 ([1]; 48 MRSA strains tested, including ten VRSA strains) was 2, the “MICs Range” value ([1]; MRSA strains (n = 38)) was 0.5 to 2 mg/L and the MIC ([1]; MRSA / NCTC 10442, strain NCTC 10442, read-out: MIC Values) was 2 µg/mL. The MIC ([1]; MRSA, MRSA strains (n = 38), read-out: MICs 50%) was 2 µg/mL, the MIC ([1]; MRSA, MRSA strains (n = 38), read-out: MICs 90%) was 2 µg/mL and the MIC ([1]; MRSA, strain 85/2082, read-out: MIC Values) was 2 µg/mL. The MIC ([1]; MRSA, strain 99.3700W, read-out: MIC Values) was 2 µg/mL, the MIC ([1]; MRSA, strain 99.3759V, read-out: MIC Values) was 2 µg/mL and the MIC ([1]; MRSA, strain AMC 11094, read-out: MIC Values) was 2 µg/mL. It also gave an MIC ([1]; MRSA, strain BM12612(new), read-out: MIC Values) of 2 µg/mL, an MIC ([1]; MRSA, strain H1, read-out: MIC Values) of 2 µg/mL and an MIC ([1]; MRSA, strain HIP 5827, read-out: MIC Values) of 2 µg/mL. The MIC ([1]; MRSA, strain HIP 5836, read-out: MIC Values) was 2 µg/mL, the MIC ([1]; MRSA, strain HIP 6297, read-out: MIC Values) was 2 µg/mL and the MIC ([1]; MRSA, strain HIP 7737, read-out: MIC Values) was 2 µg/mL. The MIC ([1]; MRSA, strain JSCC 340, read-out: MIC Values) was 2 µg/mL, the MIC ([1]; MRSA, strain JSCC 351, read-out: MIC Values) was 2 µg/mL and the MIC ([1]; MRSA, strain JSCC 363, read-out: MIC Values) was 2 µg/mL. For the same compound, the MIC ([1]; MRSA, strain JSCC 381, read-out: MIC Values) was 2 µg/mL, the MIC ([1]; MRSA, strain JSCC 390, read-out: MIC Values) was 2 µg/mL and the MIC ([1]; MRSA, strain JSCC 401, read-out: MIC Values) was 2 µg/mL. It also gave an MIC ([1]; MRSA, strain JSCC 413, read-out: MIC Values) of 2 µg/mL, an MIC ([1]; MRSA, strain JSCC 431, read-out: MIC Values) of 2 µg/mL and an MIC ([1]; MRSA, strain JSCC 440, read-out: MIC Values) of 2 µg/mL. It also gave an MIC ([1]; MRSA, strain JSCC 451, read-out: MIC Values) of 2 µg/mL, an MIC ([1]; MRSA, strain JSCC 463, read-out: MIC Values) of 2 µg/mL and an MIC ([1]; MRSA, strain JSCC 481, read-out: MIC Values) of 2 µg/mL. For the same compound, the MIC ([1]; MRSA, strain JSCC 490, read-out: MIC Values) was 2 µg/mL, the MIC ([1]; MRSA, strain JSCC 501, read-out: MIC Values) was 2 µg/mL and the MIC ([1]; MRSA, strain JSCC 513, read-out: MIC Values) was 1 µg/mL. For the same compound, the MIC ([1]; MRSA, strain JSCC 531, read-out: MIC Values) was 1 µg/mL, the MIC ([1]; MRSA, strain JSCC 540, read-out: MIC Values) was 1 µg/mL and the MIC ([1]; MRSA, strain JSCC 551, read-out: MIC Values) was 2 µg/mL. It also gave an MIC ([1]; MRSA, strain JSCC 563, read-out: MIC Values) of 1 µg/mL, an MIC ([1]; MRSA, strain JSCC 581 (lacks the mecA gene), read-out: MIC Values) of 2 µg/mL and an MIC ([1]; MRSA, strain JSCC 590 (lacks the mecA gene), read-out: MIC Values) of 2 µg/mL. The MIC ([1]; MRSA, strain JSCC 601, read-out: MIC Values) was 1 µg/mL, the MIC ([1]; MRSA, strain JSCC 640, read-out: MIC Values) was 1 µg/mL and the MIC ([1]; MRSA, strain JSCC 651, read-out: MIC Values) was 2 µg/mL. For the same compound, the MIC ([1]; MRSA, strain JSCC 663, read-out: MIC Values) was 2 µg/mL, the MIC ([1]; MRSA, strain JSCC 681, read-out: MIC Values) was 0.5 µg/mL and the MIC ([1]; MRSA, strain JSCC 690, read-out: MIC Values) was 1 µg/mL. The MIC ([1]; MRSA, strain JSCC 701, read-out: MIC Values) was 1 µg/mL, the MIC ([1]; MRSA, strain JSCC 713, read-out: MIC Values) was 2 µg/mL and the MIC ([1]; MRSA, strain JSCC 731, read-out: MIC Values) was 1 µg/mL. It also gave an MIC ([1]; MRSA, strain JSCC 740, read-out: MIC Values) of 2 µg/mL, an MIC ([1]; MRSA, strain JSCC 751, read-out: MIC Values) of 2 µg/mL and an MIC ([1]; MRSA, strain JSCC 763, read-out: MIC Values) of 2 µg/mL. For the same compound, the MIC ([1]; MRSA, strain JSCC 781, read-out: MIC Values) was 2 µg/mL, the MIC ([1]; MRSA, strain JSCC 870, read-out: MIC Values) was 2 µg/mL and the MIC ([1]; MRSA, strain LIM 2, read-out: MIC Values) was 1 µg/mL. The MIC ([1]; MRSA, strain Mu 3, read-out: MIC Values) was 2 µg/mL, the MIC ([1]; MRSA, strain Mu 50, read-out: MIC Values) was 2 µg/mL and the “susceptibility (range of MICs)” value ([1]; all tested MRSA isolates, including VRSA strains) was “susceptible range of MICs”. For the same compound, the MIC ([2]; ATCC29213, strain ATCC 29213, control sample (Ex. 26)) was 2 µg/mL, the MIC ([2]; ATCC29213, strain ATCC29213, control sample (Ex. 37)) was 2 µg/mL and the MIC ([3]; read-out: MICs 50%) was 2 µg/mL. The MIC ([3]; read-out: MICs 90%) was 2 µg/mL and the “MICs Range” value [3] was 1 to 2 mg/L.
